Assay results published in patent US12129223B2, “Lipids for use in lipid nanoparticle formulations” (Acuitas Therapeutics, Inc., priority 2021, dated 2024).

What was measured:
[1] = Determination of pKa of formulated lipids (TNS fluorescence assay in lipid nanoparticles); assay type: physicochemical; conditions: lipid nanoparticles (compound/DSPC/cholesterol/PEG-lipid), lipid formulated in LNP (lipid/DSPC/cholesterol/PEG-lipid), pH at half-maximal intensity
Summary of the method: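 LNPs (compound/DSPC/cholesterol/PEG-lipid, 50/10/38.5/1.5 or 47.5:10:40.7:1.8 mol %) diluted to 24 μM lipid in HEPES/MES/ammonium acetate/NaCl buffers, pH 2.5–11, with 1 μM TNS. Fluorescence read at room temperature, ex 321/em 445 nm. pKa taken as pH of half-maximal intensity from sigmoidal fit.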

human IgG in mouse serum = experiment: Immunoglobulin G (IgG) mRNA in vivo evaluation using lipid nanoparticle compositions; set-up: species or system mice; conditions: LNP with IgG mRNA, tail vein injection, serum 24 hours after administration
Protocol: A lipid of structure (I), DSPC, cholesterol and PEG-lipid are solubilized in ethanol at a molar ratio of 50:10:38.5:1.5 or 47.5:10:40.7:1.8. Lipid nanoparticles (LNP) are prepared at a total lipid to mRNA weight ratio of approximately 10:1 to 40:1. Briefly, the mRNA is diluted to 0.2 mg/mL in 10 to 50 mM citrate buffer, pH 4 or 10 to 25 mM acetate buffer, pH 4. Syringe pumps are used to mix the ethanolic lipid solution with the mRNA aqueous solution at a ratio of about 1:5 to 1:3 (vol/vol) with total flow rates above 15 mL/min. The ethanol is then removed and the external buffer replaced with PBS by dialysis. Finally, the lipid nanoparticles are filtered through a 0.2 µm pore sterile filter.
Studies are performed in 6-8 week old CD-1/ICR mice (Envigo) according to guidelines established by an institutional animal care committee (ACC) and the Canadian Council on Animal Care (CCAC). Varying doses of mRNA-lipid nanoparticle are systemically administered by tail vein injection and animals euthanized at a specific time point (e.g., 24 hours) post-administration. The whole blood is collected, and the serum subsequentially separated by centrifuging the tubes of the whole blood at 2000×g for 10 minutes at 4° C. and stored at −80° C. until use for analysis.
For immunoglobulin G (IgG) ELISA (Life Diagnostics Human IgG ELISA kit), the serum samples are diluted at 100 to 15000 folds with 1×diluent solution. 100 μL of diluted serum is dispensed into anti-human IgG coated 96-well plate in duplicate alongside human IgG standards and incubated in a plate shaker at 150 rpm at 25° C. for 45 minutes. The wells are washed 5 times with 1× wash solution using a plate washer (400 μL/well). 100 μL of HRP conjugate is added into each well and incubated in a plate shaker at the same condition above. The wells are washed 5 times again with 1× wash solution using a plate washer (400 μL/well). 100 μL of TMB reagent is added into each well and incubated in a plate shaker at the same condition above. The reaction is stopped by adding 100 μL of Stop solution to each well. The absorbance is read at 450 nm (A450) with a microplate reader. The amount of human IgG in mouse serum is determined by plotting A450 values for the assay standard against human IgG concentration.
Representative compounds of the disclosure shown in Table 2 were formulated using the following molar ratio: 50% cationic lipid/10% distearoylphosphatidylcholine (DSPC)/38.5% Cholesterol/1.5% PEG lipid 2-[2-(ω-methoxy(polyethyleneglycol2000)ethoxy]-N,N-ditetradecyl acetamide) or 47.5% cationic lipid/10% DSPC/40.7% Cholesterol/1.8% PEG lipid. Relative activity was determined by measuring luciferase expression in the liver 4 hours following administration via tail vein injection as described in Example 1 or by measuring the amount of human IgG in mouse serum as described in example 2. The activity was compared at a dose of 1.0 or 0.5 or 0.3 mg mRNA/kg and expressed as ng luciferase/g liver measured 4 hours after administration, as described in Example 1 or as μg IgG/mL serum measured 24 hours after administration, as described in Example 2. Compound numbers in Table 2 refer to the compound numbers of Table 1.

[2] = system: luciferase expression in the liver; experiment: Luciferase mRNA in vivo evaluation using lipid nanoparticle compositions; set-up: species or system mice; conditions: LNP with FLuc mRNA, tail vein injection, ng luciferase/g liver 4 hours after administration
Summary of the method: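 LNPs were made from cationic lipid/DSPC/cholesterol/PEG-lipid (50:10:38.5:1.5 or 47.5:10:40.7:1.8) with modified FLuc mRNA and given by tail-vein injection to mice at 1.0, 0.5 or 0.3 mg mRNA/kg. Liver luciferase was measured at 4 h by luminescence, normalized to protein and converted to ng luciferase/g liver by standard curve.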

CCCCCCCCCCN(CCCCCCCCCC)C(=O)CCCCCCCN(CCCCCCO)CCCCCCCC(=O)N(CCCCCCCCCC)CCCCCCCCCC [Compound I-24, 8,8′-((6-hydroxyhexyl)azanediyl)bis(N,N-didecyloctanamide)]
pKa [1]: 6.24
Serum IgG @ 0.3 mg/kg (human IgG in mouse serum; 0.3 mg mRNA/kg): 27.46 ± 9.22 µg/mL
Serum IgG @ 1.0 mg/kg (human IgG in mouse serum; 1.0 mg mRNA/kg): 112.31 ± 14.51 µg/mL
Liver Luc @ 0.3 mg/kg ([2]; 0.3 mg mRNA/kg): 9106 ± 1760 ng/g
Liver Luc @ 1.0 mg/kg ([2]; 1.0 mg mRNA/kg): 38913 ± 14318 ng/g
